In patent US20240002429A1, “PRODRUG OF 5a-HYDROXY-6ß-[2-(1H-IMIDAZOL-4-YL)ETHYLAMINO]CHOLESTAN-3ß-OL AND PHARMACEUTICAL COMPOSITIONS COMPRISING SAME FOR USE IN THE TREATMENT OF CANCER” (priority 2020, published 2024):

Assays:
4T1 cells [1] = test: Cytotoxicity on 4T1 cells, LDH; assay type: cell-based, murine; details: Mus musculus, 4T1, LDH, 48 h
Description: (§1) The cellular viability tests were carried out on murine mammary tumor 4T1 cells characterized as negative triples (HER2−, ER−, PR−).
(§2) For this experiment, a cell culture medium was prepared. The culture medium consists of Dulbecco's Modified Eagle Medium (DMEM, marketed by Westburg under the reference LO BE12-604F), comprising 4.5 g/L glucose with L-glutamine, to which 10% of fetal calf serum (FCS) and 50 U/mL of penicillin/streptomycin are added. The 4T1 cells are introduced into this culture medium.
(§3) 96-well plates were seeded with 2000 4T1 cells per well. After 72 hours (h) of culture in normal conditions, i.e. in an incubator at a temperature of 37° C. at 5% CO2, the 4T1 cells are treated for 48 h with DX101, DX107, DX113, DX117, DX119, DX121 or DX131 at 100 nM, 1 μM, 2.5 μM and 10 μM. A control condition (CTL) is also carried out in parallel using the protocol described above but without treatment with the molecules DX101, DX107, DX113, DX117, DX119, DX121, DX131 or DX133.
For the second method, the percentage viability is determined using assay of the activity of the enzyme LDH (lactate dehydrogenase) in the cellular supernatants using the kit non radioactive cytotoxicity assay kit (Promega). LDH is an enzyme released in the supernatant of dead cells. The higher the LDH activity in the supernatant, the greater is the cell death. In this enzyme test, the LDH released converts a violet tetrazolium salt to formazan, of red color, absorbing at 490 nm. The intensity of the red color is proportional to the number of dead cells. After 48 h of treatment, the supernatants are transferred to a new 96-well plate and are incubated for 30 minutes in the presence of the substrate mix at room temperature. The reaction is stopped using the stop buffer and the absorbance is determined at 490 nm. The percentage cell death is determined here using a control 100% of maximum activity of LDH (carried out with untreated cells incubated in the presence of the lysis solution for 45 minutes at 37° C. just before adding the substrate mix), and the cellular viability in each well is then deduced from this percentage. IC50 is then determined as explained in the preceding paragraph.

4T1 cells [2] = test: Cytotoxicity on 4T1 cells, MTT; assay type: cell-based, murine; details: Mus musculus, 4T1, MTT, 48 h
Description: as §1, §2, §3
Cellular viability is measured by three different methods. For the first method, MTT labeling is carried out at 48 hours. This test is based on the use of the tetrazolium salt MTT (3-(4,5-dimethylthiazol-2-yl)-2,5-diphenyltetrazolium bromide). The tetrazolium is reduced by mitochondrial succinate dehydrogenase of active living cells, to formazan, a precipitate of a violet color. The quantity of precipitate formed is proportional to the quantity of living cells but also to the metabolic activity of each cell. […] After 48 hours, the medium is aspirated, and the cells are incubated with MTT (0.5 mg/ml in culture medium) for about 3 hours. The MTT solution is aspirated and the violet crystals are dissolved in dimethylsulfoxide (DMSO). The OD (optical density) is measured at 550 nm. The percentage viability is then determined in each well relative to the CTL and the IC50 (concentration for which there are still 50% of living cells) is determined for each molecule with Prism software using the nonlinear regression straight line (log(inhibitor) vs. Response).

[3] = log of IC50 in μM, read-out: Mean LogIC50 (±SEM) (converted)

With CCC(=O)O[C@H]1CC[C@]2(C)[C@H]3CC[C@]4(C)[C@@H]([C@H](C)CCCC(C)C)CC[C@H]4[C@@H]3C[C@@H](NCCc3c[nH]cn3)[C@@]2(O)C1 [DX107, 5α-hydroxy-6β-[2-(1H-imidazol-4-yl)ethylamino]cholestan-3β-yl propionate] the IC50 (4T1 cells [1]; [3]) was 3.31 µM, the IC50 (4T1 cells [1]; read-out: IC50) was 3.29 µM and the IC50 (4T1 cells [2]; [3]) was 3.8 µM. For the same compound, the IC50 (4T1 cells [2]; read-out: IC50) was 3.79 µM.
